# Source: PubChem BioAssay AID248 (DTP/NCI, 2004)
# Several values for one entry are separate records, joined by “and”; a condition that tells them apart may be missing. Equal entries are not always repeated. Toxic doses and inconclusive results are not listed.
# Tested on: L1210 leukemia ip in BDF1 mice, survival T/C
# Experiment: NCI In Vivo Anticancer Drug Screen. Data for tumor model L1210 Leukemia (intraperitoneal) in B6D2F1 (BDF1) mice
# Settings: endpoint: mean survival time, higher = longer survival
# How it was run: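 Tumor was transplanted into mice, which were then dosed with test compound or vehicle alone. Survival was recorded for each group, and the treated figure was expressed relative to the control figure.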
# [1] = dose: 50.0 mg/kg/injection, schedule: Q01DX001 (ip), vehicle: saline
# [2] = dose: 50.0 mg/kg/injection, schedule: Q01DX009 (ip), vehicle: Klucel (hydroxypropylcellulose) (HPC)
# [3] = dose: 100.0 mg/kg/injection, schedule: Q01DX001 (ip), vehicle: saline
# [4] = dose: 100.0 mg/kg/injection, schedule: Q01DX009 (ip), vehicle: Klucel (hydroxypropylcellulose) (HPC)
# [5] = dose: 200.0 mg/kg/injection, schedule: Q01DX009 (ip), vehicle: Klucel (hydroxypropylcellulose) (HPC)
# [6] = dose: 100.0 mg/kg/injection, schedule: Q04DX002 (ip), vehicle: Klucel (hydroxypropylcellulose) (HPC)
# [7] = dose: 200.0 mg/kg/injection, schedule: Q04DX002 (ip), vehicle: Klucel (hydroxypropylcellulose) (HPC)
# [8] = dose: 400.0 mg/kg/injection, schedule: Q04DX002 (ip), vehicle: Klucel (hydroxypropylcellulose) (HPC)
compound,measurement,setting,value
O=C(COc1ccc([N+](=O)[O-])cc1Cl)Nc1ccccc1,T/C,"dose: 100.0 mg/kg/injection, schedule: Q01DX009 (ip), vehicle: acetone",90 % of control
same,T/C,"dose: 100.0 mg/kg/injection, schedule: Q04DX003 (ip), vehicle: acetone",95 % of control
same,T/C,"dose: 200.0 mg/kg/injection, schedule: Q04DX003 (ip), vehicle: acetone",95 % of control
same,T/C,"dose: 400.0 mg/kg/injection, schedule: Q04DX003 (ip), vehicle: acetone",94 % of control
COC(OC)c1cc(=O)[nH]c(N)n1,T/C,[1],103 % of control
same,T/C,[2],109 % of control
same,T/C,"dose: 50.0 mg/kg/injection, schedule: Q04DX003 (ip), vehicle: Klucel (hydroxypropylcellulose) (HPC)",97 % of control
same,T/C,[3],101 % of control
same,T/C,[4],100 % of control
same,T/C,"dose: 100.0 mg/kg/injection, schedule: Q04DX003 (ip), vehicle: Klucel (hydroxypropylcellulose) (HPC)",93 % of control
same,T/C,"dose: 200.0 mg/kg/injection, schedule: Q01DX001 (ip), vehicle: saline",108 % of control
same,T/C,[5],104 % of control
same,T/C,"dose: 200.0 mg/kg/injection, schedule: Q04DX003 (ip), vehicle: Klucel (hydroxypropylcellulose) (HPC)",96 % of control
O=C(O)C1C2/C=C/CCCCC21 (centres undefined),T/C,"dose: 100.0 mg/kg/injection, schedule: Q04DX002 (ip), vehicle: other",104 % of control
same,T/C,"dose: 200.0 mg/kg/injection, schedule: Q04DX002 (ip), vehicle: other",86 % of control
same,T/C,"dose: 400.0 mg/kg/injection, schedule: Q04DX002 (ip), vehicle: other",93 % of control
CCOC(=O)CNc1cccc(Cl)c1,T/C,[6],107 % of control
same,T/C,[7],103 % of control
same,T/C,[8],96 % of control
c1ccc(CSCc2ccccc2)cc1,T/C,[2],97 % of control
same,T/C,[4],105 % of control
same,T/C,[6],105 % of control
same,T/C,"dose: 100.0 mg/kg/injection, schedule: Q04DX003 (ip), vehicle: saline with Tween-80",96 % of control
same,T/C,[5],102 % of control and 86 % of control
same,T/C,[7],105 % of control
same,T/C,"dose: 200.0 mg/kg/injection, schedule: Q04DX003 (ip), vehicle: saline with Tween-80",104 % of control
same,T/C,"dose: 400.0 mg/kg/injection, schedule: Q01DX009 (ip), vehicle: Klucel (hydroxypropylcellulose) (HPC)",86 % of control
same,T/C,[8],105 % of control
same,T/C,"dose: 400.0 mg/kg/injection, schedule: Q04DX003 (ip), vehicle: saline with Tween-80",96 % of control
Nc1cccc(OCCCOc2ccccc2)c1,T/C,"dose: 100.0 mg/kg/injection, schedule: Q01DX001 (ip), vehicle: Klucel (hydroxypropylcellulose) (HPC)",94 % of control
same,T/C,"dose: 200.0 mg/kg/injection, schedule: Q01DX001 (ip), vehicle: Klucel (hydroxypropylcellulose) (HPC)",97 % of control
same,T/C,"dose: 400.0 mg/kg/injection, schedule: Q01DX001 (ip), vehicle: Klucel (hydroxypropylcellulose) (HPC)",94 % of control
O=NN(CCCl)C(=O)NC1CSCSC1,T/C,"dose: 7.0 mg/kg/injection, schedule: Q01DX001 (ip), vehicle: other",284 % of control
same,T/C,"dose: 10.0 mg/kg/injection, schedule: Q01DX001 (ip), vehicle: other",322 % of control
same,T/C,"dose: 15.0 mg/kg/injection, schedule: Q01DX001 (ip), vehicle: other",333 % of control
same,T/C,"dose: 25.0 mg/kg/injection, schedule: Q01DX001 (ip), vehicle: other",168 % of control
same,T/C,"dose: 30.0 mg/kg/injection, schedule: Q01DX001 (ip), vehicle: other",277 % of control
same,T/C,"dose: 45.0 mg/kg/injection, schedule: Q01DX001 (ip), vehicle: other",107 % of control
CSc1nc(Cl)cc(-c2ccccc2)n1,T/C,"dose: 200.0 mg/kg/injection, schedule: Q01DX Z (ip), vehicle: methylcellulose (MC)",106 % of control
CC(C)=CCC1=C(O)C(C)=CC(=O)C1=O,T/C,"dose: 100.0 mg/kg/injection, schedule: Q01DX001 (ip), vehicle: water",97 % of control
same,T/C,"dose: 200.0 mg/kg/injection, schedule: Q01DX001 (ip), vehicle: water",94 % of control
same,T/C,"dose: 400.0 mg/kg/injection, schedule: Q01DX001 (ip), vehicle: water",97 % of control
CCC1COC(=O)N1 (centres undefined),T/C,"dose: 25.0 mg/kg/injection, schedule: Q01DX009 (ip), vehicle: saline",102 % of control
same,T/C,[1],95 % of control
same,T/C,"dose: 50.0 mg/kg/injection, schedule: Q01DX009 (ip), vehicle: saline",105 % of control
same,T/C,[3],100 % of control
CC(C)([CH2][Sn]([CH2]C(C)(C)c1ccccc1)[CH2]C(C)(C)c1ccccc1)c1ccccc1.CC(C)([CH2][Sn]([CH2]C(C)(C)c1ccccc1)[CH2]C(C)(C)c1ccccc1)c1ccccc1,T/C,"dose: 75.0 mg/kg/injection, schedule: Q01DX001 (ip), vehicle: other",101 % of control
same,T/C,"dose: 150.0 mg/kg/injection, schedule: Q01DX001 (ip), vehicle: other",106 % of control
same,T/C,"dose: 300.0 mg/kg/injection, schedule: Q01DX001 (ip), vehicle: other",94 % of control
